Where a name gives a salt, the structure may show the parent alone.
Experiments:
PI3Kα = PI3Kα (Homo sapiens (Human), UniProt P42336); experiment: PI3K enzyme assay, [γ-33P]ATP filter plate (Example A2), PI3Kα; type: biochemical; conditions: read-out: PI3Kα^c IC50
Description: Materials: Lipid kinase substrate, phosphoinositol-4,5-bisphosphate (PIP2), was purchased from Echelon Biosciences (Salt Lake City, Utah). PI3K isoforms α, β, δ and γ were purchased from Millipore (Bedford, Mass.). […] The kinase reaction was conducted in clear-bottom 96-well plate from Thermo Fisher Scientific in a final volume of 24 μL. Inhibitors were first diluted serially in DMSO and added to the plate wells before the addition of other reaction components. The final concentration of DMSO in the assay was 0.5%. The PI3K assays were carried out at room temperature in 20 mM MOPS, pH 6.7, 10 mM MgCl2, 5 mM DTT and CHAPS 0.03%. The reaction mixture was prepared containing 50 μM PIP2, kinase and varying concentration of inhibitors. Reactions were initiated by the addition of ATP containing 2.2 μCi [γ-^33P]ATP to a final concentration of 1000 μM. […] Reactions were incubated for 180 min and terminated by the addition of 100 μL of 1 M potassium phosphate pH 8.0, 30 mM EDTA quench buffer. […] The filter plate was aspirated on a Millipore Manifold under vacuum and washed with 18×200 μL wash buffer containing 1 M potassium phosphate pH 8.0 and 1 mM ATP. After drying by aspiration and blotting, the plate was air dried in an incubator at 37° C. overnight. […] After the plate sealing, the radioactivity of the product was determined by scintillation counting on Topcount (Perkin-Elmer). […]

PI3Kγ = PI3Kγ (Homo sapiens (Human), UniProt P48736); experiment: PI3K enzyme assay, [γ-33P]ATP filter plate (Example A2), PI3Kγ; type: biochemical; conditions: read-out: PI3Kγ^c IC50
PI3Kγ, sequence (P48736 whole entry, species assumed, canonical isoform): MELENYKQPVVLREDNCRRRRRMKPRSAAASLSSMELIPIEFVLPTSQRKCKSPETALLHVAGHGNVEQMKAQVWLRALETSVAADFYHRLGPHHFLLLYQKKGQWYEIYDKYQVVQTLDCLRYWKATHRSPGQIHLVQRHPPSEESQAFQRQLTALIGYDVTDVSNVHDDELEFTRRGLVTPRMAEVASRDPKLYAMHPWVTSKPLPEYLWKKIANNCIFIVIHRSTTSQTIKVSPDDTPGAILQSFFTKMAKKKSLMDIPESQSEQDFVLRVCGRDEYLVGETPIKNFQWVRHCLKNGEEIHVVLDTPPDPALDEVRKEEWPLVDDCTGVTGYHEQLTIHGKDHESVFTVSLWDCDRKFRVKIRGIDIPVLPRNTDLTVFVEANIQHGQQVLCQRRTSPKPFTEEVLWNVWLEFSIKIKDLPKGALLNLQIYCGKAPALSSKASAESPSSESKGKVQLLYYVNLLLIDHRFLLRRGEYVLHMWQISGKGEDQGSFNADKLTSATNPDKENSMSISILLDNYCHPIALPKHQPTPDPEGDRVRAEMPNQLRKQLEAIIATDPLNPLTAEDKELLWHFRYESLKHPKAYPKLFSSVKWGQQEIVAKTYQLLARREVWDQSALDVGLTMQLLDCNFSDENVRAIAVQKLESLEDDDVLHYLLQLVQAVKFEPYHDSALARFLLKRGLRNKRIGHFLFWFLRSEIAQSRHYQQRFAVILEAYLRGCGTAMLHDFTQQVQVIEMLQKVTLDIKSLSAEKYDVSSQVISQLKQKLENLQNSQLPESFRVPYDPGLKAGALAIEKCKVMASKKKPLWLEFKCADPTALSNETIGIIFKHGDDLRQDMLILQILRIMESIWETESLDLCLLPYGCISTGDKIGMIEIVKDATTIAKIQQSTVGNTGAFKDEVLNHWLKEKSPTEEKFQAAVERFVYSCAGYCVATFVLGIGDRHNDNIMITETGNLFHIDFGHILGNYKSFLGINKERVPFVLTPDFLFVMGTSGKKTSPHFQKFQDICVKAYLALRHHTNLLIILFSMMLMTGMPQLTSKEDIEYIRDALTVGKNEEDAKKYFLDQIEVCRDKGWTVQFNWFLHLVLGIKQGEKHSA
Description: Materials: Lipid kinase substrate, phosphoinositol-4,5-bisphosphate (PIP2), was purchased from Echelon Biosciences (Salt Lake City, Utah). PI3K isoforms α, β, δ and γ were purchased from Millipore (Bedford, Mass.). ATP, MgCl2, DTT, EDTA, MOPS and CHAPS were purchased from Sigma—Aldrich (St. Louis, Mo.).
The kinase reaction was conducted in clear-bottom 96-well plate from Thermo Fisher Scientific in a final volume of 24 μL. Inhibitors were first diluted serially in DMSO and added to the plate wells before the addition of other reaction components. The final concentration of DMSO in the assay was 0.5%. The PI3K assays were carried out at room temperature in 20 mM MOPS, pH 6.7, 10 mM MgCl2, 5 mM DTT and CHAPS 0.03%. The reaction mixture was prepared containing 50 μM PIP2, kinase and varying concentration of inhibitors. Reactions were initiated by the addition of ATP containing 2.2 μCi [γ-^33P]ATP to a final concentration of 1000 μM. The final concentration of PI3K isoforms α, β, δ and γ in the assay were 1.3, 9.4, 2.9 and 10.8 nM respectively. Reactions were incubated for 180 min and terminated by the addition of 100 μL of 1 M potassium phosphate pH 8.0, 30 mM EDTA quench buffer. […] After the plate sealing, the radioactivity of the product was determined by scintillation counting on Topcount (Perkin-Elmer). […]

PI3Kβ = PI3Kβ (Homo sapiens (Human), UniProt P42338); experiment: PI3K enzyme assay, [γ-33P]ATP filter plate (Example A2), PI3Kβ; type: biochemical; conditions: read-out: PI3Kβ^c IC50
PI3Kβ, sequence (P42338 whole entry, species assumed, canonical isoform): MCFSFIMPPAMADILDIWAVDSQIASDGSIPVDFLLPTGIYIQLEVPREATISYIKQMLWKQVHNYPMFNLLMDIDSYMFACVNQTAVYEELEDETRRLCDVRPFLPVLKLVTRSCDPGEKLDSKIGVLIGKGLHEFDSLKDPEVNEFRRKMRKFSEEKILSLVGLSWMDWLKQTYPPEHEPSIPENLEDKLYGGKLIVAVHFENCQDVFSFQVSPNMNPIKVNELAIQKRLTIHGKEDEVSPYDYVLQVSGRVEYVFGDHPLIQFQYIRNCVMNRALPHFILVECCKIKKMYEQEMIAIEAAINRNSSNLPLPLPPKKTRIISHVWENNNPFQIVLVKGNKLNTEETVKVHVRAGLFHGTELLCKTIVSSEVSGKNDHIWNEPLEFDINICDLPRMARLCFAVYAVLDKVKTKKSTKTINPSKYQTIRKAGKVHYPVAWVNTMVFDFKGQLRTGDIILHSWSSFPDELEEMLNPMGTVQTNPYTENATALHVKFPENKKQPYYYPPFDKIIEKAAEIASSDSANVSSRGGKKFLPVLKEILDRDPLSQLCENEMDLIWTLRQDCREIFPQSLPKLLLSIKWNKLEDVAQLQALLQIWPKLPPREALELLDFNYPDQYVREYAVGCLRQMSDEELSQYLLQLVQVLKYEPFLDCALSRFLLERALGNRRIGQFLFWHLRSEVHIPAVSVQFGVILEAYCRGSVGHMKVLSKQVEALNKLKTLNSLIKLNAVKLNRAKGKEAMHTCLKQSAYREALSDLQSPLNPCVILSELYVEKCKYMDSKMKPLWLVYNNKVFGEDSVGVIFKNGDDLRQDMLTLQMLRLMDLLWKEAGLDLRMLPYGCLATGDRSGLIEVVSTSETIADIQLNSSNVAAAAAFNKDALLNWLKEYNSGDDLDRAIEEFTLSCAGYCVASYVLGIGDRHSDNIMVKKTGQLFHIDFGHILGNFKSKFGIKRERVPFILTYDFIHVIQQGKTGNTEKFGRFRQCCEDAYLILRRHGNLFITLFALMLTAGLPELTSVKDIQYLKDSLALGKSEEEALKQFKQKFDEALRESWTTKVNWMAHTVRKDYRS
PI3Kβ, sequence (P27986 whole entry partner, species assumed, canonical isoform): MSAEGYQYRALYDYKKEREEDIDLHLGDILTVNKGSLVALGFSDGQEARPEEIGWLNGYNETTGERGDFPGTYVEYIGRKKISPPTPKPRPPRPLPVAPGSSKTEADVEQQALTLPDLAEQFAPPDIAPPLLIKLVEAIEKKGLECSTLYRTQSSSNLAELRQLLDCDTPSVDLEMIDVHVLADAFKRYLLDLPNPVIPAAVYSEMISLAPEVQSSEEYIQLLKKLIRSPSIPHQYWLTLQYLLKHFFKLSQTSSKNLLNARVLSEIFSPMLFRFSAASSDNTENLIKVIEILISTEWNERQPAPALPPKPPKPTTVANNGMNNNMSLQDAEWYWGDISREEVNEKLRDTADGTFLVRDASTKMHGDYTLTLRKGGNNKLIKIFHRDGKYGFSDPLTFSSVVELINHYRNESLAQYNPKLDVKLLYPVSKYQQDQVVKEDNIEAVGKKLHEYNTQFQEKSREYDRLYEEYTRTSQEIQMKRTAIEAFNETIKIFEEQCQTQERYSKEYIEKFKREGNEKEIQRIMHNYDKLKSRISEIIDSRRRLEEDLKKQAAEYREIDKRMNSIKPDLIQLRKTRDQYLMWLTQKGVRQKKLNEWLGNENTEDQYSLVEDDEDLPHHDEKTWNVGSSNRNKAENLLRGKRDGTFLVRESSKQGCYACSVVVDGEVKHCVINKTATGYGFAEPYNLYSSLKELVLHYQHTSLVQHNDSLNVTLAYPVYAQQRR
Description: Materials: Lipid kinase substrate, phosphoinositol-4,5-bisphosphate (PIP2), was purchased from Echelon Biosciences (Salt Lake City, Utah). PI3K isoforms α, β, δ and γ were purchased from Millipore (Bedford, Mass.). ATP, MgCl2, DTT, EDTA, MOPS and CHAPS were purchased from Sigma—Aldrich (St. Louis, Mo.). The kinase reaction was conducted in clear-bottom 96-well plate from Thermo Fisher Scientific in a final volume of 24 μL. Inhibitors were first diluted serially in DMSO and added to the plate wells before the addition of other reaction components. The final concentration of DMSO in the assay was 0.5%. The PI3K assays were carried out at room temperature in 20 mM MOPS, pH 6.7, 10 mM MgCl2, 5 mM DTT and CHAPS 0.03%. The reaction mixture was prepared containing 50 μM PIP2, kinase and varying concentration of inhibitors. Reactions were initiated by the addition of ATP containing 2.2 μCi [γ-^33P]ATP to a final concentration of 1000 μM. […] Reactions were incubated for 180 min and terminated by the addition of 100 μL of 1 M potassium phosphate pH 8.0, 30 mM EDTA quench buffer. […] After the plate sealing, the radioactivity of the product was determined by scintillation counting on Topcount (Perkin-Elmer). […]

[1] = tested on: Pfeiffer cell line (diffuse large B cell lymphoma); experiment: Pfeiffer cell proliferation assay (Example B2); type: cell-based; conditions: Pfeiffer cells, [3H]-thymidine
Description: Pfeiffer cell line (diffuse large B cell lymphoma) was purchased from ATCC (Manassas, Va.) and maintained in the culture medium recommended (RPMI and 10% FBS). To measure the anti-proliferation activity of the PI3Kδ submittals, the Pfeiffer cells were plated with the culture medium (2×10^3 cells/well/per 200 μl) into 96-well ultra-low binding plates (Corning, Corning, N.Y.), in the presence or absence of a concentration range of test compounds. After 3-4 days, [^3H]-thymidine (1 μCi/well) (PerkinElmer, Boston, Mass.) in PBS was then added to the cell culture for an additional 12 hrs before the incorporated radioactivity was separated by filtration with water through GF/B filters (Packard Bioscience, Meridenj, Conn.) and measured by liquid scintillation counting with a TopCount (Packard Bioscience). See Table 3 for data related to compounds of the invention.

B cells = experiment: B cell proliferation assay (Example B1); type: cell-based; conditions: purified human B cells, anti-human IgM, [3H]-thymidine
Description: To acquire B cells, human PBMC were isolated from the peripheral blood of normal, drug free donors by standard density gradient centrifugation on Ficoll-Hypague (GE Healthcare, Piscataway, N.J.) and incubated with anti-CD19 microbeads (Miltenyi Biotech, Auburn, Calif.). The B cells were then purified by positive immunosorting using an autoMacs (Miltenyi Biotech) according to the manufacturer's instruction.
The purified B cells (2×10^5/well/200 μL) were cultured in 96-well ultra-low binding plates (Corning, Corning, N.Y.) in RPMI1640, 10% FBS and goat F(ab′)2 anti-human IgM ([…]) (Invitrogen, Carlsbad, Calif.), in the presence of different amount of test compounds, […] [^3H]-thymidine (1 μCi/well) (PerkinElmer, Boston, Mass.) in PBS was then added to the B cell cultures for an additional 12 hrs before the incorporated radioactivity was separated by filtration with water through GF/B filters (Packard Bioscience, Meriden, Conn.) and measured by liquid scintillation counting with a TopCount (Packard Bioscience). […] See Table 2 for data related to compounds of the invention.

PI3Kα, sequence (P42336 whole entry, species assumed, canonical isoform): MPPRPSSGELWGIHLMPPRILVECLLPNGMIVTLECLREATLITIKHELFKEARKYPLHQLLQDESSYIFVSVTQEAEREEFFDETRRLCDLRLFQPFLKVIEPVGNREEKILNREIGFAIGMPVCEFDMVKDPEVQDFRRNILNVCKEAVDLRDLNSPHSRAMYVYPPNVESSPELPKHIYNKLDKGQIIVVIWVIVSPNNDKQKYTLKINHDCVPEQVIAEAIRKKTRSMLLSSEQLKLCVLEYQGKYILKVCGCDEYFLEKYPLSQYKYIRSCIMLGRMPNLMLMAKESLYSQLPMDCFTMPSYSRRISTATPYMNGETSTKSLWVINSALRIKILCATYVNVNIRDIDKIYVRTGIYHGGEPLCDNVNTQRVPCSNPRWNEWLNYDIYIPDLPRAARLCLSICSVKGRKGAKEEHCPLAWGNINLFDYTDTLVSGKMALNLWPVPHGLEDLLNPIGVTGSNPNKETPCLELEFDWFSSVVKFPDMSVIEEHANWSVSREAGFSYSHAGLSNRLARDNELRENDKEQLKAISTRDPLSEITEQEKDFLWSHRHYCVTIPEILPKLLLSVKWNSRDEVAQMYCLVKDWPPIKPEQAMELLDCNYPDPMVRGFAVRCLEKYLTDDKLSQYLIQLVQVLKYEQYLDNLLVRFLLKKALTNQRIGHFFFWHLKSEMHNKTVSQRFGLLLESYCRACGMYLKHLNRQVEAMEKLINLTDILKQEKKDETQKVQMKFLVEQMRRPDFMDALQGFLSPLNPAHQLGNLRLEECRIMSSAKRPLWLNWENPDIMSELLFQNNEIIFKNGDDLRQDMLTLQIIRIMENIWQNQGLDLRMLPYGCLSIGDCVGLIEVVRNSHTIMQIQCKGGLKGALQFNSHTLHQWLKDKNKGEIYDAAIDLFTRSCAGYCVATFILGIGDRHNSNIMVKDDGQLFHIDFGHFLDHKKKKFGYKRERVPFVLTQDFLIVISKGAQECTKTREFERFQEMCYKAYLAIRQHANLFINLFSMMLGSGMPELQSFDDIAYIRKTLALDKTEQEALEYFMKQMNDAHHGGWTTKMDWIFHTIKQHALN
PI3Kα, sequence (P27986 whole entry partner, species assumed, canonical isoform): as the sequence (P27986 whole entry partner, species assumed, canonical isoform) above

| Compound | IC50 ([1]; Homo sapiens, Pfeiffer) [nM] | IC50 (B cells; B-cell) [nM] | other results |
| --- | --- | --- | --- |
| Cc1csc2nc(C(C)Nc3ncnc4[nH]cnc34)c(-c3cc(F)cc(F)c3)c(=O)n12 (single isomer, unassigned) [Example 44, 6-(3,5-difluorophenyl)-3-methyl-7-[1-(9H-purin-6-ylamino)ethyl]-5H-[1,3]thiazolo[3,2-a]pyrimidin-5-one] |  |  | IC50 (PI3Kα): > 500 nM; IC50 (PI3Kγ): > 500 nM; IC50 (PI3Kβ): > 500 nM |
| Cc1csc2nc(C(C)Nc3nc(N)nc4[nH]cnc34)c(-c3ccccc3)c(=O)n12 (stereo not shown) [Example 9, 7-{1-[(2-amino-9H-purin-6-yl)amino]ethyl}-3-methyl-6-phenyl-5H-[1,3]thiazolo[3,2-a]pyrimidin-5-one] | < 50 | < 50 |  |
| CCC(Nc1ncnc2[nH]cnc12)c1nc2cccc(C)n2c(=O)c1-c1cncc(F)c1 (stereo not shown) [Example 3, 3-(5-fluoropyridin-3-yl)-6-methyl-2-[1-(9H-purin-6-ylamino)propyl]-4H-pyrido[1,2-a]pyrimidin-4-one] | 100 to 500 | < 50 |  |
| Cc1cccc2nc(C(C)n3cnc4c(N)ncnc43)c(-c3ccccc3)c(=O)n12 (stereo not shown) [Example 1, 2-[1-(6-amino-9H-purin-9-yl)ethyl]-6-methyl-3-phenyl-4H-pyrido[1,2-a]pyrimidin-4-one] | 100 to 500 | < 50 |  |
| CCC(Nc1ncnc2[nH]cnc12)c1nc2cccc(C)n2c(=O)c1-c1cn[nH]c1 (stereo not shown) [Example 7, 6-methyl-2-[1-(9H-purin-6-ylamino)propyl]-3-(1H-pyrazol-4-yl)-4H-pyrido[1,2-a]pyrimidin-4-one] | 500 to 1000 | > 500 |  |
| Cc1csc2nc(C(C)Nc3ncnc4[nH]cnc34)c(-c3ccccc3)c(=O)n12 (stereo not shown) [Example 8, 3-methyl-6-phenyl-7-[1-(9H-purin-6-ylamino)ethyl]-5H-[1,3]thiazolo[3,2-a]pyrimidin-5-one] | < 50 | < 50 |  |
| CCC(Nc1ncnc2[nH]cnc12)c1nc2cccc(C)n2c(=O)c1-c1cc(F)cc(F)c1 (stereo not shown) [Example 5, 3-(3,5-difluorophenyl)-6-methyl-2-[1-(9H-purin-6-ylamino)propyl]-4H-pyrido[1,2-a]pyrimidin-4-one] | 50 to 100 | < 50 |  |
| CCC(Nc1ncnc2[nH]cnc12)c1nc2cccc(C)n2c(=O)c1-c1cccc(F)c1 (stereo not shown) [Example 4, 3-(3-fluorophenyl)-6-methyl-2-[1-(9H-purin-6-ylamino)propyl]-4H-pyrido[1,2-a]pyrimidin-4-one] | 100 to 500 | < 50 |  |
| CCC(Nc1ncnc2[nH]cnc12)c1nc2cccc(C)n2c(=O)c1-c1cccnc1F (stereo not shown) [Example 6, 3-(2-fluoropyridin-3-yl)-6-methyl-2-[1-(9H-purin-6-ylamino)propyl]-4H-pyrido[1,2-a]pyrimidin-4-one] | 100 to 500 | 50 to 100 |  |
| Cc1csc2nc(C(C)Nc3ncnc4[nH]cnc34)c(-c3cccc(F)c3)c(=O)n12 (stereo not shown) [Example 30, 6-(3-fluorophenyl)-3-methyl-7-[1-(9H-purin-6-ylamino)ethyl]-5H-[1,3]thiazolo[3,2-a]pyrimidin-5-one] |  |  | IC50 [1]: < 50 nM; IC50 (B cells): < 50 nM |
| Cc1csc2nc(C(C)Nc3ncnc4[nH]cnc34)c(-c3cccc(F)c3)c(=O)n12 (stereo not shown) [Example 10, 6-(3-fluorophenyl)-3-methyl-7-[1-(9H-purin-6-ylamino)ethyl]-5H-[1,3]thiazolo[3,2-a]pyrimidin-5-one] | < 50 | < 50 |  |
| CCC(Nc1ncnc2[nH]cnc12)c1nc2cccc(C)n2c(=O)c1-c1ccccc1 (stereo not shown) [Example 2, 6-methyl-3-phenyl-2-[1-(9H-purin-6-ylamino)propyl]-4H-pyrido[1,2-a]pyrimidin-4-one] | < 50 | 100 to 500 |  |
| Cc1cccc2nc(C(C)Nc3ncnc4[nH]cnc34)c(-c3cccc(F)c3)c(=O)n12 (single isomer, unassigned) [Example 71, 3-(3-Fluorophenyl)-6-methyl-2-[1-(9H-purin-6-ylamino)ethyl]-4H-pyrido[1,2-a]pyrimidin-4-one trifluoroacetic acid salt] |  | < 50 |  |
| Cc1csc2nc(C(C)Nc3nc(N)nc4[nH]cnc34)c(-c3cccc(F)c3)c(=O)n12 (stereo not shown) [Example 11, 7-{1-[(2-amino-9H-purin-6-yl)amino]ethyl}-6-(3-fluorophenyl)-3-methyl-5H-[1,3]thiazolo[3,2-a]pyrimidin-5-one] | < 50 | < 50 |  |
